Test results taken from PMC7906330 (PLoS ONE, 2021).

Columns and labels:
[1] = pH 7
trypsin = assay: in vitro; conditions: isolated enzyme trypsin, pH 8.5

Compound	α-helical structure / structural stability by CD [1]	half-life (trypsin)
CC[C@H](C)[C@H](NC(=O)[C@H](CC(C)C)NC(=O)[C@H](Cc1ccccc1)NC(=O)[C@H](CCC(N)=O)NC(=O)[C@H](CC(C)C)NC(=O)[C@H](CCCCN)NC(=O)CNC(=O)[C@H](Cc1ccc(O)cc1)NC(=O)[C@@H]1CCCN1C(=O)[C@@H](NC(=O)[C@@H]1CCCN1C(=O)[C@H](Cc1ccc(O)cc1)NC(=O)CNC(=O)[C@H](CCCCN)NC(=O)[C@H](Cc1c[nH]c2ccccc12)NC(=O)[C@@H]1CCCN1C(=O)CN)[C@@H](C)CC)C(=O)N[C@@H](CCCCN)C(=O)N[C@@H](CCCCN)C(=O)N[C@@H](CC(C)C)C(=O)N[C@@H](CCCCN)C(=O)N[C@@H](CCC(N)=O)C(=O)N[C@@H](CC(C)C)C(=O)N[C@@H](CCCCN)C(=O)N[C@H](C(N)=O)C(C)C [Peptide M49dN]	no α-helical structure	5 ± 0.3 min
CC[C@H](C)[C@H](NC(=O)[C@H](CC(C)C)NC(=O)[C@H](Cc1ccccc1)NC(=O)[C@H](CCC(N)=O)NC(=O)[C@H](CC(C)C)NC(=O)[C@H](CCCCN)NC(=O)CNC(=O)[C@H](Cc1ccc(O)cc1)NC(=O)[C@@H]1CCCN1C(=O)[C@@H](NC(=O)[C@@H]1CCCN1C(=O)[C@H](Cc1ccc(O)cc1)NC(=O)CNC(=O)[C@H](CCCCN)NC(=O)[C@H](Cc1c[nH]c2ccccc12)NC(=O)[C@@H]1CCCN1C(=O)CNC(=O)[C@H](CCC(=O)O)NC(=O)[C@H](CC(C)C)NC(=O)[C@H](C)NC(=O)[C@H](C)NC(=O)[C@H](CC(C)C)NC(=O)[C@H](CCC(=O)O)NC(=O)[C@H](C)NC(=O)[C@H](CCC(=O)O)NC(=O)[C@H](CC(C)C)NC(=O)[C@H](C)NC(=O)[C@H](C)NC(=O)[C@H](CC(C)C)NC(=O)[C@H](CCC(=O)O)NC(=O)[C@H](C)N)[C@@H](C)CC)C(=O)N[C@@H](CCCCN)C(=O)N[C@@H](CCCCN)C(=O)N[C@@H](CC(C)C)C(=O)N[C@@H](CCCCN)C(=O)N[C@@H](CCC(N)=O)C(=O)N[C@@H](CC(C)C)C(=O)N[C@@H](CCCCN)C(=O)N[C@H](C(N)=O)C(C)C [Peptide M49dS]	mostly denatured at 80 °C	39 ± 2 min
